Experimental data reported in PubChem BioAssay AID330 (DTP/NCI, 2004).
Several values for one entry are separate records, joined by “and”; a condition that tells them apart may be missing. Identical values can stand only once. Toxic doses and inconclusive results are not listed.

Tested on: P388 leukemia ip, CD2F1 mice, survival T/C
Test: NCI In Vivo Anticancer Drug Screen. Data for tumor model P388 Leukemia (intraperitoneal) in CD2F1 (CDF1) mice
Conditions: endpoint: median survival time, higher = longer survival
Method in brief: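 Mice carrying the transplanted tumor received test compound or vehicle. Survival was recorded in each group, and the value is the treated-group measurement divided by that of the vehicle-treated control group.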

[1] = dose: 50.0 mg/kg/injection, schedule: Q01DX005 (ip), vehicle: saline with Tween-80
[2] = dose: 100.0 mg/kg/injection, schedule: Q01DX005 (ip), vehicle: saline with Tween-80
[3] = dose: 200.0 mg/kg/injection, schedule: Q01DX005 (ip), vehicle: saline with Tween-80
[4] = dose: 50.0 mg/kg/injection, schedule: Q01DX009 (ip), vehicle: Klucel (hydroxypropylcellulose) (HPC)
[5] = dose: 100.0 mg/kg/injection, schedule: Q01DX009 (ip), vehicle: Klucel (hydroxypropylcellulose) (HPC)
[6] = dose: 200.0 mg/kg/injection, schedule: Q01DX009 (ip), vehicle: Klucel (hydroxypropylcellulose) (HPC)
[7] = dose: 25.0 mg/kg/injection, schedule: Q01DX005 (ip), vehicle: saline with Tween-80
[8] = dose: 60.0 mg/kg/injection, schedule: Q01DX005 (ip), vehicle: saline with Tween-80
[9] = dose: 120.0 mg/kg/injection, schedule: Q01DX005 (ip), vehicle: saline with Tween-80
[10] = dose: 240.0 mg/kg/injection, schedule: Q01DX005 (ip), vehicle: saline with Tween-80
[11] = dose: 60.0 mg/kg/injection, schedule: Q01DX005 (ip), vehicle: Klucel (hydroxypropylcellulose) (HPC)
[12] = dose: 120.0 mg/kg/injection, schedule: Q01DX005 (ip), vehicle: Klucel (hydroxypropylcellulose) (HPC)
[13] = dose: 50.0 mg/kg/injection, schedule: Q01DX009 (ip), vehicle: saline with Tween-80
[14] = dose: 100.0 mg/kg/injection, schedule: Q01DX009 (ip), vehicle: saline with Tween-80
[15] = dose: 200.0 mg/kg/injection, schedule: Q01DX009 (ip), vehicle: saline with Tween-80
[16] = dose: 12.5 mg/kg/injection, schedule: Q01DX009 (ip), vehicle: saline with Tween-80
[17] = dose: 25.0 mg/kg/injection, schedule: Q01DX009 (ip), vehicle: saline with Tween-80

SMILES: O=C(O)C(Cc1cccc(F)c1)NC(=O)C(F)(F)F (stereo not given)
- T/C (dose: 6.25 mg/kg/injection, schedule: Q01DX009 (ip), vehicle: saline): 98 % of control

SMILES: CC1(C(N)=O)CCSc2ccccc2C1=O (stereo not given)
- T/C [1]: 95 % of control
- T/C [2]: 92 % of control
- T/C [3]: 94 % of control

SMILES: CN(O)C(=O)/C=C/c1ccccc1
- T/C (dose: 50.0 mg/kg/injection, schedule: Q01DX009 (ip), vehicle: distilled water + Tween-80): 104 % of control
- T/C (dose: 100.0 mg/kg/injection, schedule: Q01DX009 (ip), vehicle: distilled water + Tween-80): 104 % of control
- T/C (dose: 200.0 mg/kg/injection, schedule: Q01DX009 (ip), vehicle: distilled water + Tween-80): 110 % of control

SMILES: CC(C)S(=O)(=O)c1s[nH]c(=O)c1-c1ccccc1
- T/C [4]: 109 % of control
- T/C [5]: 107 % of control
- T/C [6]: 101 % of control

SMILES: Nc1ccc2ccc(N)cc2c1
- T/C [7]: 105 % of control
- T/C [1]: 98 % of control and 104 % of control
- T/C [2]: 103 % of control and 113 % of control
- T/C [3]: 122 % of control and 123 % of control

SMILES: COc1ccc(CCN2C(=O)C(=O)N(C(C)C)C2=O)cc1OC
- T/C [4]: 86 % of control
- T/C [5]: 91 % of control
- T/C [6]: 95 % of control

SMILES: CNC(=O)N(C)CP(=O)(CN(C)C(=O)NC)CN(C)C(=O)NC
- T/C (dose: 50.0 mg/kg/injection, schedule: Q01DX009 (ip), vehicle: saline): 97 % of control
- T/C (dose: 100.0 mg/kg/injection, schedule: Q01DX009 (ip), vehicle: saline): 100 % of control
- T/C (dose: 200.0 mg/kg/injection, schedule: Q01DX009 (ip), vehicle: saline): 99 % of control

SMILES: O=C1CC2(C(=O)O1)c1ccccc1-c1ccccc12
- T/C [8]: 111 % of control
- T/C [9]: 105 % of control
- T/C [10]: 112 % of control

SMILES: O=C(O)/C=C\C(=O)N[C@H]1CCSC1=O
- T/C [11]: 94 % of control
- T/C [12]: 94 % of control
- T/C (dose: 240.0 mg/kg/injection, schedule: Q01DX005 (ip), vehicle: Klucel (hydroxypropylcellulose) (HPC)): 90 % of control

SMILES: O=S(=O)(NCCSSCCNS(=O)(=O)c1ccc(Cl)cc1)c1ccc(Cl)cc1
- T/C [4]: 92 % of control
- T/C [5]: 91 % of control
- T/C [6]: 88 % of control

SMILES: O=[N+]([O-])c1ccc(SC2=NCCCN2)c(Cl)c1
- T/C [13]: 102 % of control
- T/C [14]: 100 % of control
- T/C [15]: 105 % of control

SMILES: Oc1ccc(C2(c3ccc(O)cc3)C3CC4CC(C3)CC2C4)cc1
- T/C [4]: 104 % of control
- T/C [5]: 103 % of control
- T/C [6]: 100 % of control

SMILES: CS/C(=C/c1ccc2ccccc2[n+]1C)N1CCN(C)CC1
- T/C (dose: 6.25 mg/kg/injection, schedule: Q01DX005 (ip), vehicle: saline): 99 % of control
- T/C (dose: 12.5 mg/kg/injection, schedule: Q01DX005 (ip), vehicle: saline): 98 % of control
- T/C (dose: 25.0 mg/kg/injection, schedule: Q01DX005 (ip), vehicle: saline): 102 % of control

SMILES: CCCCCCCCCCCCCCCCCCON
- T/C (dose: 100.0 mg/kg/injection, schedule: Q04DX003 (ip), vehicle: Klucel (hydroxypropylcellulose) (HPC)): 97 % of control
- T/C (dose: 200.0 mg/kg/injection, schedule: Q04DX003 (ip), vehicle: Klucel (hydroxypropylcellulose) (HPC)): 92 % of control
- T/C (dose: 400.0 mg/kg/injection, schedule: Q04DX003 (ip), vehicle: Klucel (hydroxypropylcellulose) (HPC)): 94 % of control

SMILES: CN(C)c1ccc(C=NCCC[Si]23OCCN(CCO2)CCO3)cc1
- T/C (dose: 50.0 mg/kg/injection, schedule: Q01DX005 (ip), vehicle: Klucel (hydroxypropylcellulose) (HPC)): 106 % of control
- T/C (dose: 100.0 mg/kg/injection, schedule: Q01DX005 (ip), vehicle: Klucel (hydroxypropylcellulose) (HPC)): 100 % of control
- T/C (dose: 200.0 mg/kg/injection, schedule: Q01DX005 (ip), vehicle: Klucel (hydroxypropylcellulose) (HPC)): 111 % of control

SMILES: COc1cc(N=Nc2cc(CN(C)C)cc3ncccc23)c(OC)cc1N=Nc1ccc([N+](=O)[O-])cc1
- T/C (dose: 12.5 mg/kg/injection, schedule: Q01DX005 (ip), vehicle: saline with Tween-80): 98 % of control
- T/C (dose: 12.5 mg/kg/injection, schedule: Q01DX009 (ip), vehicle: Klucel (hydroxypropylcellulose) (HPC)): 93 % of control
- T/C [7]: 109 % of control
- T/C (dose: 25.0 mg/kg/injection, schedule: Q01DX009 (ip), vehicle: Klucel (hydroxypropylcellulose) (HPC)): 91 % of control
- T/C (dose: 38.25 mg/kg/injection, schedule: Q01DX009 (ip), vehicle: Klucel (hydroxypropylcellulose) (HPC)): 102 % of control
- T/C [1]: 100 % of control
- T/C [4]: 120 % of control and 93 % of control
- T/C (dose: 76.5 mg/kg/injection, schedule: Q01DX009 (ip), vehicle: Klucel (hydroxypropylcellulose) (HPC)): 94 % of control
- T/C [2]: 107 % of control
- T/C [5]: 99 % of control and 115 % of control and 95 % of control
- T/C (dose: 153.0 mg/kg/injection, schedule: Q01DX009 (ip), vehicle: Klucel (hydroxypropylcellulose) (HPC)): 95 % of control
- T/C [3]: 107 % of control
- T/C [6]: 108 % of control and 93 % of control
- T/C (dose: 306.0 mg/kg/injection, schedule: Q01DX009 (ip), vehicle: Klucel (hydroxypropylcellulose) (HPC)): 110 % of control
- T/C (dose: 400.0 mg/kg/injection, schedule: Q01DX005 (ip), vehicle: saline with Tween-80): 109 % of control
- T/C (dose: 400.0 mg/kg/injection, schedule: Q01DX009 (ip), vehicle: Klucel (hydroxypropylcellulose) (HPC)): 102 % of control and 94 % of control

SMILES: O=C(c1ccccc1)c1cc([N+](=O)[O-])cc([N+](=O)[O-])c1
- T/C [14]: 104 % of control
- T/C [15]: 97 % of control
- T/C (dose: 400.0 mg/kg/injection, schedule: Q01DX009 (ip), vehicle: saline with Tween-80): 97 % of control

SMILES: Oc1ccccc1CNCc1ccccc1O
- T/C [16]: 100 % of control
- T/C [17]: 100 % of control
- T/C [13]: 108 % of control
- T/C [14]: 98 % of control

SMILES: COc1cc2nn(-c3ccccc3N)nc2cc1OC
- T/C [8]: 106 % of control
- T/C [9]: 100 % of control
- T/C [10]: 102 % of control

SMILES: Cc1ccc(-c2n[nH]c(=O)c(C#N)c2-c2ccc(C)cc2)cc1
- T/C (dose: 100.0 mg/kg/injection, schedule: Q04DX002 (ip), vehicle: saline with Tween-80): 88 % of control
- T/C (dose: 400.0 mg/kg/injection, schedule: Q04DX002 (ip), vehicle: saline with Tween-80): 88 % of control

SMILES: CC(CC(=O)c1ccccc1)=NCCCCCN=C(C)CC(=O)c1ccccc1
- T/C [13]: 100 % of control
- T/C [14]: 102 % of control
- T/C [15]: 100 % of control

SMILES: COC(=O)c1nc(N)nc(C(=O)OC)c1C(=O)c1ccc(F)cc1
- T/C [11]: 101 % of control
- T/C [12]: 102 % of control

SMILES: COC(=O)C1=COC(C)C2CN3CCC4(C(=O)Nc5ccccc54)C3CC12 (stereo not given)
- T/C [8]: 101 % of control
- T/C [9]: 101 % of control

SMILES: CCCCN(CCCC)CC(N=O)c1cc(-c2ccc(Cl)c(Cl)c2)nc2c(Cl)cc(Cl)cc12 (stereo not given)
- T/C [1]: 108 % of control
- T/C [2]: 111 % of control
- T/C [3]: 107 % of control

SMILES: CSc1nc(C#N)c(N)s1
- T/C [8]: 101 % of control
- T/C [9]: 95 % of control
- T/C [10]: 95 % of control

SMILES: CCCCNC(=O)OCCN(CCOC(=O)NCCCC)C(=O)N1c2ccccc2Sc2ccccc21
- T/C (dose: 50.0 mg/kg/injection, schedule: Q04DX003 (ip), vehicle: saline with Tween-80): 98 % of control
- T/C (dose: 100.0 mg/kg/injection, schedule: Q04DX003 (ip), vehicle: saline with Tween-80): 90 % of control
- T/C (dose: 200.0 mg/kg/injection, schedule: Q04DX003 (ip), vehicle: saline with Tween-80): 90 % of control

SMILES: COc1cccc2c1C(=O)c1c(O)c3c(c(O)c1C2=O)C[C@@](O)(C(C)O)C[C@@H]3OC1CC(N2CCC(OC)CC2)C(O)C(C)O1 (stereo not given in full)
- T/C (dose: 0.78 mg/kg/injection, schedule: Q04DX003 (ip), vehicle: water): 112 % of control
- T/C (dose: 1.56 mg/kg/injection, schedule: Q04DX003 (ip), vehicle: water): 114 % of control
- T/C (dose: 3.12 mg/kg/injection, schedule: Q04DX003 (ip), vehicle: water): 111 % of control and 117 % of control
- T/C (dose: 6.25 mg/kg/injection, schedule: Q04DX003 (ip), vehicle: water): 188 % of control
- T/C (dose: 12.5 mg/kg/injection, schedule: Q04DX003 (ip), vehicle: water): 158 % of control and 240 % of control
- T/C (dose: 25.0 mg/kg/injection, schedule: Q04DX003 (ip), vehicle: water): 118 % of control

SMILES: O=C1C2C3C=CC(C2C(=O)N1CCl)C1C2C(=O)N(CCl)C(=O)C2C31 (stereo not given)
- T/C (dose: 6.25 mg/kg/injection, schedule: Q01DX009 (ip), vehicle: saline with Tween-80): 105 % of control
- T/C [16]: 103 % of control
- T/C [17]: 103 % of control
- T/C [13]: 107 % of control and 114 % of control
- T/C [14]: 107 % of control and 116 % of control
- T/C [15]: 115 % of control
